The source made the active and inactive calls. Cut-off read from the data, not from the text of the source, for most assays here: actives have a measured IC50 and inactives only a lower limit.
Key:
[1] = molecular target: T1, Sentrin-specific protease 6 (Homo sapiens, UniProt Q9GZR1); type: functional;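 note: Luminescence-based dose-response confirmatory assay of SENP6 inhibition, following up an ultra-high-throughput screen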
T1 sequence (Q9GZR1 whole entry): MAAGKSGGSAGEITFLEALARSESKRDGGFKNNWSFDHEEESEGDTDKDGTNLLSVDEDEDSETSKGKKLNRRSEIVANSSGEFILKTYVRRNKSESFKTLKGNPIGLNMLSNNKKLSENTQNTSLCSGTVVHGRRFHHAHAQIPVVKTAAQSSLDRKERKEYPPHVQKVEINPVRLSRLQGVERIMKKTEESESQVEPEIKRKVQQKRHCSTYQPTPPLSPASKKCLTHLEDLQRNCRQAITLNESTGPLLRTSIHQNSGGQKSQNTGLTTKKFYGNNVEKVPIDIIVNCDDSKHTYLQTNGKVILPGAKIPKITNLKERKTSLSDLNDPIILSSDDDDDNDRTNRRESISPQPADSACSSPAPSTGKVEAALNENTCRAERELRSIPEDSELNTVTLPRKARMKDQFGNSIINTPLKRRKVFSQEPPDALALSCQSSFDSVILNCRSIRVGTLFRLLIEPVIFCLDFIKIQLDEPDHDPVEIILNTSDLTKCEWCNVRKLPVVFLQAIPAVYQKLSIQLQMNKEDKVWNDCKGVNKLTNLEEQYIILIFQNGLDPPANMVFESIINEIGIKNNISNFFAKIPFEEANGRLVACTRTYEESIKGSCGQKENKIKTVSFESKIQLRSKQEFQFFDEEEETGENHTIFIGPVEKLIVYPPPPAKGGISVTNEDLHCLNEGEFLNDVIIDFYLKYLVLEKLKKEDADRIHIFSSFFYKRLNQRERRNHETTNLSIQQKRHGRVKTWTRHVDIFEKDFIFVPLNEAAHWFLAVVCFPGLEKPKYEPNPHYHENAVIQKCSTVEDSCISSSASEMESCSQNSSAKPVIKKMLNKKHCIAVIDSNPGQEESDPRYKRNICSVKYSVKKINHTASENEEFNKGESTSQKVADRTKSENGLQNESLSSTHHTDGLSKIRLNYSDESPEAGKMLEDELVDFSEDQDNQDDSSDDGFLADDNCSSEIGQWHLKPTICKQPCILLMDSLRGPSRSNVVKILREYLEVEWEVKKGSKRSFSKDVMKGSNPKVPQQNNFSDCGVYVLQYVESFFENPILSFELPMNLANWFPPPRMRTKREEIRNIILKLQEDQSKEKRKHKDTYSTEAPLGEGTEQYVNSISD

[2] = molecular target: T2, Sentrin-specific protease 7 (Homo sapiens, UniProt Q9BQF6); type: functional;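 note: Luminescence-based dose-response confirmation of ultra-high-throughput screening hits, measuring inhibition of SENP7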
T2 sequence (Q9BQF6 whole entry): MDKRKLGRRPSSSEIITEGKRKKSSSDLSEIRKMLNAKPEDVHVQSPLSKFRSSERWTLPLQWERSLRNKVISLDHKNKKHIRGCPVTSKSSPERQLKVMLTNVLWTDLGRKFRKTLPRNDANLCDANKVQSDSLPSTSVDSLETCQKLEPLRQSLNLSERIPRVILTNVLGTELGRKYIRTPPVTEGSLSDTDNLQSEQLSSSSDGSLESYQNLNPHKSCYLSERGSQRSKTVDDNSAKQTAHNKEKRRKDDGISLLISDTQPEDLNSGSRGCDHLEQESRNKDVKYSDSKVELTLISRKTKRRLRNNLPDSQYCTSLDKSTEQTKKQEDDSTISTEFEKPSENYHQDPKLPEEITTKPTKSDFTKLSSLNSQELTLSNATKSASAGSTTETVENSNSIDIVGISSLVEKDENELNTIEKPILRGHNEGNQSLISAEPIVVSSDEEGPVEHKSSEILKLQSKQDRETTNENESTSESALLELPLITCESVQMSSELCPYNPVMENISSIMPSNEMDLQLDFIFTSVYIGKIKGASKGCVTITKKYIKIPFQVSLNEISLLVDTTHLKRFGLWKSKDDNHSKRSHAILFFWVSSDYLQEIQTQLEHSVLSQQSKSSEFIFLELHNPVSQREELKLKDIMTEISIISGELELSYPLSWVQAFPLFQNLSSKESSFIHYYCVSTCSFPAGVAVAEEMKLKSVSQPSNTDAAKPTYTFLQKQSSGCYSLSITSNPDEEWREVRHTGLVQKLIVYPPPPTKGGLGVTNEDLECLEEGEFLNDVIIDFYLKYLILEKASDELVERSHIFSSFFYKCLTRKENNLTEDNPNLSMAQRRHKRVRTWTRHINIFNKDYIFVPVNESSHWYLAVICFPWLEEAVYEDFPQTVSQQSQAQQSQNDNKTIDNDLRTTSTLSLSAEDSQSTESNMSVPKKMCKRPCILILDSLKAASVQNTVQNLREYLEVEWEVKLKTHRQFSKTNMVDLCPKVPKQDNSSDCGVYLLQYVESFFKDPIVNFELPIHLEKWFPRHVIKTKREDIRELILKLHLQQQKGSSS

[3] = molecular target: T3, Sentrin-specific protease 8 (Homo sapiens, UniProt Q96LD8); type: functional;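 note: luminescence read-out of SENP8 inhibition, dose-response confirmation following an ultra-high-throughput screen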
T3 sequence (Q96LD8 whole entry): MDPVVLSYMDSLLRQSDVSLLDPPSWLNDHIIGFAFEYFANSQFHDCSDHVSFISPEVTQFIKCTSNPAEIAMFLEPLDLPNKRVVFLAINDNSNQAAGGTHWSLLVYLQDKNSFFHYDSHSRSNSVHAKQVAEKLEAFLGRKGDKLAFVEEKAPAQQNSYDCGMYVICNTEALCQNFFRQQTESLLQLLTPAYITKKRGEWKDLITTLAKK

[4] = molecular target: T4, Caspase-3 (Homo sapiens, UniProt P42574); type: functional;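 note: Dose-response selectivity test against caspase-3 for candidate inhibitors of sentrin-specific proteases (SENPs)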
T4 sequence (P42574 whole entry): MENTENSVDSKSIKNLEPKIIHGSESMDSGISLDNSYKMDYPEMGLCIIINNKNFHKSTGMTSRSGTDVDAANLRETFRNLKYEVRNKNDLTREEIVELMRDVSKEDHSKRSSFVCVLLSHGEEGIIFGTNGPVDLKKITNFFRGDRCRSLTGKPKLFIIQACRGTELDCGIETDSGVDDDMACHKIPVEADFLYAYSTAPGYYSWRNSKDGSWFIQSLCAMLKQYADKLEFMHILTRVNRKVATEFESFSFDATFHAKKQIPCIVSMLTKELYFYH

[5] = molecular target: Paired box protein Pax-8 (Homo sapiens, UniProt Q06710); assay: inhibitors of PAX8-driven TPO luciferase reporter, dose response, RMG-I cells, cherry-pick (AID 687027); type: functional, cell-based;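 note: luciferase reporter driven by Pax8 target thyroperoxidase promoter measured by SteadyGlo luminescence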
Chain of Paired box protein Pax-8 (Q06710 whole entry): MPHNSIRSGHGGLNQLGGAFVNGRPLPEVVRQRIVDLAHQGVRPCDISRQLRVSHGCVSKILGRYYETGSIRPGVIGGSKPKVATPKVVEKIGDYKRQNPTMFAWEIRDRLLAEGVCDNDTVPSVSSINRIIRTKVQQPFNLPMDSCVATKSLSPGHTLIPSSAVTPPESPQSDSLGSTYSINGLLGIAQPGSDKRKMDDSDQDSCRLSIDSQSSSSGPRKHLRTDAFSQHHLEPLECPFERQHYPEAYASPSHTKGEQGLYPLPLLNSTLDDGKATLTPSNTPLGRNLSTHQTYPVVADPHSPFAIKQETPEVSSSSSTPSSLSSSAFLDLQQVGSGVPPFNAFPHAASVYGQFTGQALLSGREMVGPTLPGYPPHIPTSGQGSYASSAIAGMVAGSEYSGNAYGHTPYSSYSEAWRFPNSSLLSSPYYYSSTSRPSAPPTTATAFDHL

[6] = Shn3 3'UTR reporter inhibitors, dose response, cell-based, Clone20 osteoblasts, firefly luciferase, cherry-picked (AID 624132); type: functional;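 note: firefly luciferase luminescence from reporter carrying the Shn3 3'UTR in osteoblasts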

O=C(c1ccccc1)c1coc2c1C(=O)c1ccccc1C2=O
active: IC50 [1] 4.61 µM | IC50 [2] 12.7 µM | IC50 [3] 17.4 µM | IC50 [4] 25.7 µM

CCOC(=O)c1c(C)[nH]c2c1-c1ccccc1C(=O)C2=O
active: AC50 [5] 1.05 µM | AC50 [6] 0.496 µM

COc1ccc2c(c1)CCC(/C=N/c1ccc3c(c1)OCO3)=C2O
active: IC50 [1] 8.46 µM | IC50 [2] 13.1 µM | IC50 [3] 15.1 µM | IC50 [4] 65.5 µM

CC(=O)NC(c1ccc2ccccc2c1)c1ccc2cccnc2c1O (configuration not stated)
active: AC50 [5] 1.89 µM | AC50 [6] 0.422 µM
